Test results published in ChEMBL document CHEMBL3585283, “Synthesis and evaluation of a series of quinolinyl trans-cyanostilbene analogs as anticancer agents” (2014).
The source made the active and inactive calls. The rule behind the calls is not given here.

Legend:
SK-MEL-2 = assay: Antitumor activity against human SK-MEL-2 cells after 48 hrs; format: functional; conditions: SK-MEL-2, 48 h
HCT-15 = assay: Antitumor activity against human HCT15 cells after 48 hrs; format: functional; conditions: HCT-15, 48 h
MDA-MB-468 = assay: Antitumor activity against human MDA-MB-468 cells after 48 hrs; format: functional; conditions: MDA-MB-468, 48 h
[1] = Antitumor activity against human HOP92 cells after 48 hrs; format: functional; conditions: HOP-92, 48 h
A498 = assay: Antitumor activity against human A498 cells after 48 hrs; format: functional; conditions: A498, 48 h
OVCAR-5 = assay: Antitumor activity against human OVCAR5 cells after 48 hrs; format: functional; conditions: OVCAR-5, 48 h
SW-620 = assay: Antitumor activity against human SW620 cells after 48 hrs; format: functional; conditions: SW-620, 48 h
CCRF-CEM = assay: Antitumor activity against human CCRF-CEM cells after 48 hrs; format: functional
[2] = Antitumor activity against human BT549 cells after 48 hrs; format: functional; conditions: BT-549, 48 h
[3] = Antitumor activity against human LOXIMVI cells after 48 hrs; format: functional; conditions: LOX IMVI
NCI-H460 = assay: Antitumor activity against human NCI-H460 cells after 48 hrs; format: functional; conditions: NCI-H460, 48 h
[4] = Antitumor activity against human MOLT4 cells after 48 hrs; format: functional; conditions: MOLT-4, 48 h
T47D = assay: Antitumor activity against human T47D cells after 48 hrs; format: functional
KM12 = assay: Antitumor activity against human KM12 cells after 48 hrs; format: functional; conditions: KM12, 48 h
PC-3 = assay: Antitumor activity against human PC3 cells after 48 hrs; format: functional; conditions: PC-3, 48 h
SNB-19 = assay: Antitumor activity against human SNB19 cells after 48 hrs; format: functional; conditions: SNB-19, 48 h
SK-MEL-28 = assay: Antitumor activity against human SK-MEL-28 cells after 48 hrs; format: functional; conditions: SK-MEL-28, 48 h
MDA-MB-435 = assay: Antitumor activity against human MDA-MB-435 cells after 48 hrs; format: functional; conditions: MDA-MB-435, 48 h
NCI-H522 = assay: Antitumor activity against human NCI-H522 cells after 48 hrs; format: functional; conditions: NCI-H522, 48 h
MCF7 = assay: Antitumor activity against human MCF7 cells after 48 hrs; format: functional; conditions: MCF7, 48 h
786-0 = assay: Antitumor activity against human 786-0 cells after 48 hrs; format: functional; conditions: 786-0, 48 h
[5] = Antitumor activity against human SF295 cells after 48 hrs; format: functional; conditions: SF-295, 48 h
Malme-3M = assay: Antitumor activity against human MALME-3M cells after 48 hrs; format: functional
EKVX = assay: Antitumor activity against human EKVX cells after 48 hrs; format: functional, cell-based
IGROV-1 = assay: Antitumor activity against human IGROV1 cells after 48 hrs; format: functional; conditions: IGROV-1, 48 h
NCI-H226 = assay: Antitumor activity against human NCI-H226 cells after 48 hrs; format: functional; conditions: NCI-H226, 48 h
MDA-MB-231 = assay: Antitumor activity against human MDA-MB-231 cells after 48 hrs; format: functional; conditions: MDA-MB-231, 48 h
[6] = Antitumor activity against human Hs578T cells after 48 hrs; format: functional; conditions: Hs-578T
K562 = assay: Antitumor activity against human K562 cells after 48 hrs; format: functional; conditions: K562, 48 h
SF-268 = assay: Antitumor activity against human SF268 cells after 48 hrs; format: functional; conditions: SF-268, 48 h
HOP-62 = assay: Antitumor activity against human HOP62 cells after 48 hrs; format: functional; conditions: HOP-62, 48 h
SN12C = assay: Antitumor activity against human SN12C cells after 48 hrs; format: functional
HT-29 = assay: Antitumor activity against human HT-29 cells after 48 hrs; format: functional; conditions: HT-29, 48 h
NCI-H23 = assay: Antitumor activity against human NCI-H23 cells after 48 hrs; format: functional; conditions: NCI-H23, 48 h
HCT-116 = assay: Antitumor activity against human HCT116 cells after 48 hrs; format: functional; conditions: HCT-116, 48 h
UO-31 = assay: Antitumor activity against human UO31 cells after 48 hrs; format: functional; conditions: UO-31, 48 h
SR = assay: Antitumor activity against human SR cells after 48 hrs; format: functional
[7] = Antitumor activity against human COLO205 cells after 48 hrs; format: functional; conditions: COLO 205, 48 h
HL-60(TB) = assay: Antitumor activity against human HL-60(TB) cells after 48 hrs; format: functional; conditions: HL-60, 48 h
SK-OV-3 = assay: Antitumor activity against human SKOV3 cells after 48 hrs; format: functional; conditions: SK-OV-3, 48 h
U-251 = assay: Antitumor activity against human U251 cells after 48 hrs; format: functional; conditions: U-251, 48 h
SNB-75 = assay: Antitumor activity against human SNB75 cells after 48 hrs; format: functional; conditions: SNB-75, 48 h
NCI-H322M = assay: Antitumor activity against human NCI-H322M cells after 48 hrs; format: functional
OVCAR-3 = assay: Antitumor activity against human OVCAR3 cells after 48 hrs; format: functional; conditions: OVCAR-3, 48 h
A549 = assay: Antitumor activity against human A549 cells after 48 hrs; format: functional; conditions: A549, 48 h
ACHN = assay: Antitumor activity against human ACHN cells after 48 hrs; format: functional
[8] = Antitumor activity against human NCI-ADR-RES cells after 48 hrs; format: functional
[9] = Antitumor activity against human RPMI8226 cells after 48 hrs; format: functional; conditions: RPMI-8226, 48 h
DU-145 = assay: Antitumor activity against human DU145 cells after 48 hrs; format: functional; conditions: DU-145, 48 h
M14 = assay: Antitumor activity against human M14 cells after 48 hrs; format: functional; conditions: M14, 48 h
[10] = Antitumor activity against human RXF393 cells after 48 hrs; format: functional; conditions: RXF 393, 48 h
[11] = Antitumor activity against human HCC2998 cells after 48 hrs; format: functional; conditions: HCC 2998, 48 h
SK-MEL-5 = assay: Antitumor activity against human SK-MEL-5 cells after 48 hrs; format: functional; conditions: SK-MEL-5, 48 h
CAKI-1 = assay: Antitumor activity against human Caki1 cells after 48 hrs; format: functional; conditions: CAKI-1, 48 h
UACC-62 = assay: Antitumor activity against human UACC62 cells after 48 hrs; format: functional; conditions: UACC-62, 48 h
OVCAR-4 = assay: Antitumor activity against human OVCAR4 cells after 48 hrs; format: functional; conditions: OVCAR-4, 48 h
[12] = Antitumor activity against human SF539 cells after 48 hrs; format: functional; conditions: SF-539, 48 h
OVCAR-8 = assay: Antitumor activity against human OVCAR8 cells after 48 hrs; format: functional; conditions: OVCAR-8, 48 h
TK-10 = assay: Antitumor activity against human TK10 cells after 48 hrs; format: functional; conditions: TK-10, 48 h
UACC-257 = assay: Antitumor activity against human UACC257 cells after 48 hrs; format: functional; conditions: UACC-257, 48 h

For COc1cc(OC)cc(/C(C#N)=C/c2ccc3ccccc3n2)c1, the GI50 (SK-MEL-2) was 522 nM, the GI50 (HCT-15) was 409 nM and the GI50 (MDA-MB-468) was 1500 nM. It also gave a GI50 [1] of 542 nM, a GI50 (A498) of 275 nM and a GI50 (OVCAR-5) of 716 nM. It also gave a GI50 (SW-620) of 357 nM, a GI50 (CCRF-CEM) of 332 nM and a GI50 [2] of 342 nM. For the same compound, the GI50 [3] was 610 nM, the GI50 (NCI-H460) was 339 nM and the GI50 [4] was 419 nM. It also gave a GI50 (T47D) of 1230 nM, a GI50 (KM12) of 425 nM and a GI50 (PC-3) of 584 nM. The GI50 (SNB-19) was 728 nM, the GI50 (SK-MEL-28) was 896 nM and the GI50 (MDA-MB-435) was 147 nM. For the same compound, the GI50 (NCI-H522) was 94 nM, the GI50 (MCF7) was 537 nM and the GI50 (786-0) was 501 nM. The GI50 [5] was 341 nM, the GI50 (Malme-3M) was 348 nM and the GI50 (EKVX) was “inactive”. The GI50 (IGROV-1) was 958 nM, the GI50 (NCI-H226) was 10.8 µM and the GI50 (MDA-MB-231) was 1020 nM. It also gave a GI50 [6] of 700 nM, a GI50 (K562) of 353 nM and a GI50 (SF-268) of 476 nM. The GI50 (HOP-62) was 959 nM, the GI50 (SN12C) was 661 nM and the GI50 (HT-29) was 367 nM. For the same compound, the GI50 (NCI-H23) was 983 nM, the GI50 (HCT-116) was 416 nM and the GI50 (UO-31) was 573 nM. The GI50 (SR) was “inactive”, the GI50 [7] was 374 nM and the GI50 (HL-60(TB)) was 270 nM. For the same compound, the GI50 (SK-OV-3) was 804 nM, the GI50 (U-251) was 425 nM and the GI50 (SNB-75) was 311 nM. The GI50 (NCI-H322M) was 3020 nM, the GI50 (OVCAR-3) was 309 nM and the GI50 (A549) was 649 nM. For the same compound, the GI50 (ACHN) was 773 nM, the GI50 [8] was 283 nM and the GI50 [9] was 433 nM. For the same compound, the GI50 (DU-145) was 801 nM, the GI50 (M14) was 360 nM and the GI50 [10] was 334 nM. It also gave a GI50 [11] of 1420 nM, a GI50 (SK-MEL-5) of 406 nM and a GI50 (CAKI-1) of 318 nM. The GI50 (UACC-62) was 449 nM, the GI50 (OVCAR-4) was 788 nM and the GI50 [12] was 286 nM. It also gave a GI50 (OVCAR-8) of 659 nM and a GI50 (TK-10) of 3.28 µM.
Work on COc1cc(OC)cc(/C(C#N)=C/c2cnc3ccccc3c2)c1 yielded a GI50 (SK-MEL-2) of 709 nM, a GI50 (HCT-15) of 455 nM and a GI50 (MDA-MB-468) of 217 nM. The GI50 [1] was 3090 nM, the GI50 (A498) was 333 nM and the GI50 (OVCAR-5) was 587 nM. For the same compound, the GI50 (SW-620) was 352 nM, the GI50 (CCRF-CEM) was 332 nM and the GI50 [2] was 388 nM. It also gave a GI50 [3] of 672 nM, a GI50 (NCI-H460) of 362 nM and a GI50 [4] of 378 nM. The GI50 (T47D) was 628 nM, the GI50 (KM12) was 409 nM and the GI50 (PC-3) was 506 nM. It also gave a GI50 (SNB-19) of 614 nM, a GI50 (SK-MEL-28) of 1400 nM and a GI50 (MDA-MB-435) of 53 nM. It also gave a GI50 (NCI-H522) of 69 nM, a GI50 (MCF7) of 333 nM and a GI50 (786-0) of 484 nM. For the same compound, the GI50 [5] was 243 nM, the GI50 (Malme-3M) was 635 nM and the GI50 (EKVX) was “inactive”. It also gave a GI50 (IGROV-1) of 3500 nM, a GI50 (UACC-257) of 12.8 µM and a GI50 (NCI-H226) of 62.2 µM. It also gave a GI50 (MDA-MB-231) of 1150 nM, a GI50 [6] of 715 nM and a GI50 (K562) of 243 nM. For the same compound, the GI50 (SF-268) was 654 nM, the GI50 (HOP-62) was 793 nM and the GI50 (SN12C) was 661 nM. The GI50 (HT-29) was 362 nM, the GI50 (NCI-H23) was 747 nM and the GI50 (HCT-116) was 420 nM. For the same compound, the GI50 (SR) was “inactive”, the GI50 [7] was 398 nM and the GI50 (HL-60(TB)) was 234 nM. For the same compound, the GI50 (SK-OV-3) was 576 nM, the GI50 (U-251) was 374 nM and the GI50 (SNB-75) was 224 nM. For the same compound, the GI50 (NCI-H322M) was 903 nM, the GI50 (OVCAR-3) was 279 nM and the GI50 (A549) was 556 nM. The GI50 (ACHN) was 1190 nM, the GI50 [8] was 224 nM and the GI50 [9] was 332 nM. It also gave a GI50 (DU-145) of 505 nM, a GI50 (M14) of 310 nM and a GI50 [10] of 297 nM. For the same compound, the GI50 [11] was 1450 nM, the GI50 (SK-MEL-5) was 249 nM and the GI50 (CAKI-1) was 223 nM. For the same compound, the GI50 (UACC-62) was 357 nM, the GI50 (OVCAR-4) was 1730 nM and the GI50 [12] was 289 nM. It also gave a GI50 (OVCAR-8) of 584 nM and a GI50 (TK-10) of 17.7 µM.
